Reference: US20030114456A1, “Novel heterocylic compounds with anti-inflamatory activity” (priority 2000, published 2003)
Counter-ions that a name gives are not always drawn. One block for each compound: values may come before it.

Legend:
human COX-2 = target: T1, human COX-2 (Homo sapiens, UniProt P35354); test: Inhibition of COX-2 activity (PGE2 production after arachidonic acid) in 143.98.2 osteosarcoma cells; type: cell-based; conditions: 0.1 μM test compound, PGE2 production after 10 μM arachidonic acid
T1 construct: human COX-2 (143.98.2 from human osteosarcoma), respectively; endogenous in cells; host or cells: 143.98.2 (human osteosarcoma)
T1 sequence (P35354 18-604): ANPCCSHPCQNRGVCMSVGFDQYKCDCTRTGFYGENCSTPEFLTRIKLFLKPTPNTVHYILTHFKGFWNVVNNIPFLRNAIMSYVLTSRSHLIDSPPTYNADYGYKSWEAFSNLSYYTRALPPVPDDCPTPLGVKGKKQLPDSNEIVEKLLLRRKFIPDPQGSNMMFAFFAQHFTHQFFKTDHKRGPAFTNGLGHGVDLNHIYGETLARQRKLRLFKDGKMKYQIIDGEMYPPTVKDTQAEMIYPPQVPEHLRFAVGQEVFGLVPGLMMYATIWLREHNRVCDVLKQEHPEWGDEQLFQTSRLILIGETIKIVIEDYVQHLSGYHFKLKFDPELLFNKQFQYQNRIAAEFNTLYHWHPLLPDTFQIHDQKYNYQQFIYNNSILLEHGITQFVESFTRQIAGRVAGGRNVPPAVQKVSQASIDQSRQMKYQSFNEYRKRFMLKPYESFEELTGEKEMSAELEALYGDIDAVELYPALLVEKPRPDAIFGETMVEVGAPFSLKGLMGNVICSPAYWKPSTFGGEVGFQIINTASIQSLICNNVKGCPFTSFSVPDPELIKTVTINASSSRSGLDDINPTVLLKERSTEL
Experimental: (§1) Inhibition of cyclooxygenase-1 (COX-1) and cyclooxygenase-2 (COX-2) Activity in Human Cell Lines
(§2) The inhibition of COX-1 and COX-2 is determined by assessing the PGE2 production after stimulation with arachidonic acid in cell lines expressing human COX-1 (U-937 from human histiocitic lymphoma) and human COX-2 (143.98.2 from human osteosarcoma), respectively.
(§3) The osteosarcoma-derived cells were cultured in 1 mL of DMEM culture medium supplemented with 10% fetal calf serum, in 24-well multidishes until confluence. U-937 cells were cultured in RPMI medium supplemented with 10% fetal calf serum in flasks.
(§4) To evaluate COX-2 activity, the medium was removed and replaced with Hepes-buffered saline solution (HBSS) without Ca^2+/Mg^2+ (2×10^5 cells/well). To evaluate COX-1 activity, the medium was removed and U-937 cells were resuspended to a final density of 3×10^6 cells/mL in HBSS without Ca^2+/Mg^2+ (1 mL/well, in 24-well multidishes). 1 μL of a solution of the test compound dissolved in DMSO or vehicle was added, and the samples were incubated for 15 min at 37° C. (5% CO2 and 95% humidity). Arachidonic acid was added (final concentration: 10 μM) and the samples were incubated for 10 min more. Next the reactions were quenched by adding indomethacin (8 mM, 30 μL). The amount of PGE2 in the supernatant was determined by specific enzymatic immunoassay (Kit Prostaglandin E2, Biotrak EIA system RPN222, Amersham Pharmacia Biotech). All the assays were performed in triplicate.
(§5) The results obtained with representative compounds of the present invention are shown in the following table, where the % of inhibition of COX-1 and COX-2 activity at a concentration of 0.1 μM of test compound are reported.

human COX-1 = target: T2, human COX-1 (Homo sapiens, UniProt P23219); test: Inhibition of COX-1 activity (PGE2 production after arachidonic acid) in U-937 cells; type: cell-based; conditions: 0.1 μM test compound, PGE2 production after 10 μM arachidonic acid
T2 construct: cell lines expressing human COX-1 (U-937 from human histiocitic lymphoma); endogenous in cells; host or cells: U-937 (human histiocytic lymphoma)
T2 sequence (P23219 24-599): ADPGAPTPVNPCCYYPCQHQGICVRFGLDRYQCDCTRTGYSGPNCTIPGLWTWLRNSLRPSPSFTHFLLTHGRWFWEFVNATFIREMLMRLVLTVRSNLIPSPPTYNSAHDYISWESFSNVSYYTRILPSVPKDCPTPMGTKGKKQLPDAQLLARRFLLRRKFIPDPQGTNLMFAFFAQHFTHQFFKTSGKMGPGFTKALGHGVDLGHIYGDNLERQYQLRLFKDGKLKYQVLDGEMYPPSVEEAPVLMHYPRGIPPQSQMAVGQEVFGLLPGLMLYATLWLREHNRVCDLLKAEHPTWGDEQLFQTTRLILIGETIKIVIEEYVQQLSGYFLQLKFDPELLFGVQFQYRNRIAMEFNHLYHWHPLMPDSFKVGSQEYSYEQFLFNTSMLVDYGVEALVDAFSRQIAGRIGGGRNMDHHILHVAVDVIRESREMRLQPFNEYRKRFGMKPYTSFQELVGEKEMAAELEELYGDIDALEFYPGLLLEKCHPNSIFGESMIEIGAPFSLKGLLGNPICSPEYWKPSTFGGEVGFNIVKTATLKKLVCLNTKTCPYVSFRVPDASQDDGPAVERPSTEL
Experimental: as §1, §2, §3, §4, §5

Compound: CS(=O)(=O)c1ccc(-n2cnc(Cl)c2-c2ccc(N3CCCC3)cc2)cc1 [Example 1, 4-Chloro-1-(4-methylsulfonylphenyl)-5-[4-(1-pyrrolidinyl)phenyl]imidazole]
inhibition at 0.1 µM (human COX-2): 61%
inhibition at 0.1 µM (human COX-1): 0%

Compound: CS(=O)(=O)c1ccc(-n2cnc(Cl)c2-c2ccc(N3CCC(O)C3)cc2)cc1 (stereo not shown) [Example 3, 4-Chloro-5-[4-(3-hydroxypyrrolidin-1-yl)phenyl]-1-(4-methylsulfonylphenyl)imidazole]
inhibition at 0.1 µM (human COX-2): 75%
inhibition at 0.1 µM (human COX-1): 11%

Compound: CC1CCCN1c1ccc(-c2c(Cl)ncn2-c2ccc(S(C)(=O)=O)cc2)cc1 (stereo not shown) [Example 4, 4-Chloro-5-[4-(2-methylpyrrolidin-1-yl)phenyl]-1-(4-methylsulfonylphenyl)imidazole]
inhibition at 0.1 µM (human COX-2): 72%
inhibition at 0.1 µM (human COX-1): 0%

Compound: NS(=O)(=O)c1ccc(-n2cnc(Cl)c2-c2ccc(N3CCCC3)cc2)cc1 [Example 5, 4-[4-Chloro-5-[4-(1-pyrrolidinyl)phenyl]imidazol-1-yl]benzenesulfonamide, hydrochloride]
inhibition at 0.1 µM (human COX-2): 70%
inhibition at 0.1 µM (human COX-1): 0%

Compound: CS(=O)(=O)c1ccc(-n2cnc(Cl)c2-c2ccc(N3CCCC3)c(Cl)c2)cc1 [Example 6, 4-Chloro-5-[3-chloro-4-(1-pyrrolidinyl)phenyl]-1-(4-methylsulfonylphenyl)imidazole]
inhibition at 0.1 µM (human COX-2): 89%
inhibition at 0.1 µM (human COX-1): 0%

Compound: CS(=O)(=O)c1ccc(-n2cnc(Cl)c2-c2ccc(N3C(=O)CCC3=O)cc2)cc1 [Example 7, 4-Chloro-1-(4-methylsulfonylphenyl)-5-[4-(2,5-dioxopyrrolidin-1-yl)phenyl]imidazole]
inhibition at 0.1 µM (human COX-2): 72%
inhibition at 0.1 µM (human COX-1): 0%

Other lines, results leading:

inhibition at 0.1 µM (human COX-2): 76%
inhibition at 0.1 µM (human COX-1): 0%
Compound: CS(=O)(=O)c1ccc(-n2cnc(Cl)c2-c2ccc(N3CC=CC3=O)cc2)cc1 [Example 8, 4-Chloro-1-(4-methylsulfonylphenyl)-5-[4-(2-oxo-3-pyrrolin-1-yl)phenyl]imidazole]

inhibition at 0.1 µM (human COX-2): 72%
inhibition at 0.1 µM (human COX-1): 0%
Compound: CS(=O)(=O)c1ccc(-n2cnc(Cl)c2-c2ccc(N3CCOC3=O)cc2)cc1 [Example 9, 4-Chloro-1-(4-methylsulfonylphenyl)-5-[4-(2-oxooxazolidin-3-yl)phenyl]imidazole]

inhibition at 0.1 µM (human COX-2): 61%
inhibition at 0.1 µM (human COX-1): 0%
Compound: CS(=O)(=O)c1ccc(-n2cnc(Cl)c2-c2ccc(N3CCCC3=O)cc2)cc1 [Example 10, 4-Chloro-1-(4-methylsulfonylphenyl)-5-[4-(2-oxopyrrolidin-1-yl)phenyl]imidazole]

inhibition at 0.1 µM (human COX-2): 79%
inhibition at 0.1 µM (human COX-1): 0%
Compound: CS(=O)(=O)c1ccc(-n2cnc(Cl)c2-c2ccc(N3CCCC3)nc2)cc1 [Example 12, 4-Chloro-1-(4-methylsulfonylphenyl)-5-[6-(1-pyrrolidinyl)-3-pyridyl]imidazole]

inhibition at 0.1 µM (human COX-2): 49%
inhibition at 0.1 µM (human COX-1): 0%
Compound: CS(=O)(=O)c1ccc(C2=C(c3ccc(N4CC=CC4=O)cc3)C(=O)OC2)cc1 [Example 14, 4-(4-Methylsulfonylphenyl)-3-[4-(2-oxo-3-pyrrolin-1-yl)phenyl]-5H-furan-2-one]

inhibition at 0.1 µM (human COX-2): 81%
inhibition at 0.1 µM (human COX-1): 17%
Compound: CS(=O)(=O)c1ccc(C2=C(c3ccc(N4CCCC4)cc3)C(=O)OC2)cc1 [Example 15, 4-(4-Methylsulfonylphenyl)-3-[4-(1-pyrrolidinyl)phenyl]-5H-furan-2-one]

inhibition at 0.1 µM (human COX-2): 93%
inhibition at 0.1 µM (human COX-1): 0%
Compound: CS(=O)(=O)c1ccc(C2=C(c3ccc(N4CCCC4)c(Cl)c3)C(=O)OC2)cc1 [Example 16, 3-[3-Chloro-4-(1-pyrrolidinyl)phenyl]-4-(4-methylsulfonylphenyl)-5H-furan-2-one]

inhibition at 0.1 µM (human COX-2): 81%
inhibition at 0.1 µM (human COX-1): 0%
Compound: CS(=O)(=O)c1ccc(C2=C(c3ccc(N4CCCC4)nc3)C(=O)OC2)cc1 [Example 17, 4-(4-Methylsulfonylphenyl)-3-[6-(1-pyrrolidinyl)-3-pyridyl]-5H-furan-2-one]
